{
  "source": "paper PMC6981144",
  "about": "(Nature Communications, 2020)",
  "key": {"GLP1R [1]": {"tested_on": "GLP1R", "experiment": "Insulin secretion in isolated Glp1r+/+ and Glp1r(GE)−/− islets", "type": "cell-based, mouse", "details": "for Insulin (secreted/total): G16.7+Ex4 (10 nM), individual repeats, listed as Ex4", "from_the_text": "For all statistical tests, *P < 0.05, **P < 0.01 and NS, non-significant. […] Mean ± s.e.m. are shown. Source data are provided as a Source Data file."}, "GLP1R [2]": {"tested_on": "GLP1R", "experiment": "Surface GLP1R expression in islets, GLP1R monoclonal antibody staining", "type": "cell-based, mouse", "details": "LUXendin555 250 nM, LUXendin645 100 nM, Ex9 250 nM", "from_the_text": "(§1) Mean ± s.e.m. are shown. **P < 0.01 for all statistical tests. Source data are provided as a Source Data file."}, "GLP1R [3]": {"target": "T1, GLP1R (Homo sapiens, UniProt P43220)", "T1 construct": "expressed in transfected cells", "T1 sequence (P43220 24-463)": "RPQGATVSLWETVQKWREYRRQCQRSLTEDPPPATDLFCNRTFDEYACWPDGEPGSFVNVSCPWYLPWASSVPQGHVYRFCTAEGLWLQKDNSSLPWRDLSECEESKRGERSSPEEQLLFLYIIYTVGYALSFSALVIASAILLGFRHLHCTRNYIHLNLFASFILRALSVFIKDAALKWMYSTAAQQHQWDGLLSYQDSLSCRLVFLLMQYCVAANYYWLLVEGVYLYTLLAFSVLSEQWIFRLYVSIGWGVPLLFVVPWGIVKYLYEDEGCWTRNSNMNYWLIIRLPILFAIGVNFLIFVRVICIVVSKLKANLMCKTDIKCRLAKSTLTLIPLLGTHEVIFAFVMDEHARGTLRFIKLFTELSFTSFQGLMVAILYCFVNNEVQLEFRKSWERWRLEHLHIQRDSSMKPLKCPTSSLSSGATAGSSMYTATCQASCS", "experiment": "HTRF cAMP assay in HEK293-SNAP_GLP1R cells, agonist and antagonist modes, with or without PAM BETP", "type": "cell-based", "details": "n = 4 independent assays; for antagonist properties against GLP-1-induced cAMP production: applied at 1 µM, 30 min GLP-1 stimulation; for agonist or partial agonist activity (cAMP): ligand alone, 30 min", "procedure": "as §1\nPotency for cAMP generation and inhibition was tested in heterologous expression systems, comprising either stable CHO-K1-SNAP_GLP1R or HEK-SNAP_GLP1R cells, or transiently transfected YFP-AD293-SNAP_GLP1R cells. Briefly, cells were incubated with increasing concentrations of compound with and without allosteric modulator for 30 min, before harvesting, lysis and measurement of cAMP using either cAMP-Glo^TM (Promega) or HTRF (Cisbio) assays, according to the manufacturer’s instructions. All assays were performed in the presence of 100–500 µM IBMX to inhibit phosphodiesterase activity. EC50 values were calculated using log concentration–response curves fitted with a three-parameter or four-parameter equation. […]\npharmacology. HTRF cAMP assays in HEK-SNAP_GLP1R cells in agonist and antagonist modes, stimulated with ligand for 30 min. Note that LUXendins are GLP1R antagonists […]\nare shown. Source data are provided as a Source Data file.\n(1 picture or pasted object on this page, not shown here)"}, "GLP1R [4]": {"tested_on": "GLP1R", "experiment": "cAMP imaging in islets with FRET probe Epac2-camps", "type": "cell-based, mouse", "details": "Glp1r+/+ versus Glp1r(GE)−/− islets", "from_the_text": "Islets were transduced with adenovirus harboring the FRET sensor, Epac2-camps[56] (a kind gift from Prof. Dermot Cooper, University of Cambridge), before imaging using a Crest X-Light spinning disk system coupled to a Nikon Ti-E base and ×10/0.4 NA objective. Excitation was delivered at λ = 430–450 nm using a Lumencor Spectra X light engine. Emitted signals were detected at λ = 460–500 and λ = 520–550 nm for Cerulean and Citrine, respectively, using a Photometrics Delta Evolve EM-CCD. Imaging was performed in HEPES–bicarbonate buffer, containing (in mmol/L) 120 NaCl, 4.8 KCl, 24 NaHCO3, 0.5 Na2HPO4, 5 HEPES, 2.5 CaCl2, 1.2 MgCl2, and 3–17 D-glucose."}},
  "note": "“And” between values parts separate entries of the source, which are not always exact repeats. Identical values can stand only once.",
  "data": [
    {"substance": "Exendin4(1–39)", "values": [
      {"measurement": "Exendin4(1–39)-stimulated insulin secretion in Glp1r(GE)−/− islets", "setting": "GLP1R [1]; Ex4 10 nM", "value": "absence of Exendin4(1–39)-stimulated insulin secretion"},
      {"measurement": "Insulin (secreted/total)", "setting": "GLP1R [1]; KO islets", "value": "0.004511 and 0.004222 and 0.01074 and 0.01469 and 0.006361 and 0.004456 and 0.008025 and 0.00578 and 0.004129 and 0.001581 and 0.003759 and 0.00219 and 0.001686 and 0.003265 and 0.005154 and 0.02304 and 0.01055 and 0.00295"},
      {"measurement": "Insulin (secreted/total)", "setting": "GLP1R [1]; WT islets", "value": "0.004112 and 0.004627 and 0.005837 and 0.009517 and 0.006319 and 0.005338 and 0.01271 and 0.01517 and 0.02135 and 0.009713 and 0.003732 and 0.0026 and 0.01717 and 0.03657 and 0.02723 and 0.004332"}
    ]},
    {"substance": "Exendin4(9–39)", "values": [
      {"measurement": "GLP1R surface expression in islets", "setting": "GLP1R [2]", "value": "no differences"},
      {"measurement": "antagonist properties against GLP-1-induced cAMP production", "setting": "GLP1R [3]", "value": "similarly blocked"},
      {"measurement": "agonist or partial agonist activity (cAMP)", "setting": "GLP1R [3]", "value": "No agonist or partial agonist activity was detected"}
    ]},
    {"substance": "Liraglutide (HAEGTFTSDVSSYLEGQAAKEFIAWLVRGRG; chains of the INN, looked up) [incretin-mimetic]", "values": [
      {"measurement": "stimulation of cAMP rises in islets", "setting": "GLP1R [4]", "value": "only able to stimulate cAMP rises in islets from wild-type"}
    ]},
    {"substance": "S39C-Exendin4(9–39): S39C mutant of Exendin4(9–39) with a C-terminal thiol handle", "values": [
      {"measurement": "antagonist properties against GLP-1-induced cAMP production", "setting": "GLP1R [3]", "value": "similarly blocked"},
      {"measurement": "agonist or partial agonist activity (cAMP)", "setting": "GLP1R [3]", "value": "No agonist or partial agonist activity was detected"}
    ]}
  ]
}
